# Measurements as given in PMC10636171 (Cell Death & Disease, 2023).
# Tests used:
# 284 kinases = system: 284 kinases; set-up: method as in PMID 25736998; details: 100 nM; 284 kinases tested; cited from earlier work
# HS746T = assay: CCK8 antiproliferative assay; type: cell-based; details: Homo sapiens, Hs746T, 72 h, read-out: IC50, cell proliferation
# Method: (§1) For cytotoxicity assay, the cells grown in the logarithmic phase were seeded into 96-well plates (7 × 10^3 cells/well) for 24 h, then exposed to different concentrations (10, 5, 1, 0.1, 0.01 and 0.001 μM) of the test compounds for 72 h. After attached cells were incubated with CCK8 (Sigma, USA) for another 1–4 h. Then the absorbance at 450 nm was measured using a multifunction microplate reader (Molecular Devices, Flex Station 3), and each experiment was performed at least in triplicate.
# ASPC1 = assay: CCK8 antiproliferative assay; type: cell-based; details: Homo sapiens, ASPC1, 72 h, read-out: IC50, cell proliferation
# Method: as §1
# MKN45 = assay: CCK8 antiproliferative assay; type: cell-based; details: Homo sapiens, MKN-45, 72 h, read-out: IC50, cell proliferation
# Method: as §1
# MHCC97H xenograft tumor = MHCC97H xenograft tumor model; type: in vivo, BALB/c nude mice; details: Tepotinib group (dose not given), ig, calculated through tumor weight
# Method: (§2) Male BALB/c nude mice (5-week old, 18–20 g) were purchased from Beijing Vital River Laboratory Animal Technology (Beijing Vital River LaboratoryAnimal Technology Co., Ltd., Beijing,China) and allowed to acclimate for 1 week, maintained at constant room temperature and fed a standard rodent chow and water. 1 × 10^7 cells/mL cancer cells grown in logarithmic phase were harvested and resuspended in FBS-free 1640 medium. Then, 100 μL of the cell suspension was subcutaneously injected into the right flank of each mouse. When the tumour volume was reached about 600–800 mm^3, it was removed, minced into small pieces of equal volume (2 × 2 × 2 mm^3), and transplanted subcutaneously into the nude mice. When the tumour volume was reached about 200–400 mm^3, the xenograft tumour-bearing nude mice were randomly allocated to five groups (vehicle-treated, 1D228-2mgd-treated, 1D228-4mgd-treated […] Tepotinib-treated groups, with 6 or 8 mice (The number of mice were determined according to previous experience on xenograft tumor models) per group. Each group was dosed by intragastric administration (ig) for 7–14 days. Tumour volume and body weights were recorded every day after drug treatment. At the end of the observation period, the animals were euthanized by cervical dislocation and the tumour bulks were peeled off conformed to the Guide for the Care and Use of Laboratory Animals as published by the US National Institutes of Health (NIH Publication No. 85-23, revised 1996) and approved by the Institutional Ethics Review Board of Binzhou Medical University. There was no blinding was done during the animal experiment. No animals were excluded from the analysis.
# [1] = Liver microsomal stability assay; type: in vitro ADME; details: liver microsomes, pH 7.4
# Method: The incubation system (including 0.1 M PH 7.4 phosphate buffer, NADPH generation system, UGT incubation system, 0.5 mg/mL liver microsomal protein and appropriate concentration of drug to be tested) was incubated in a water bath at 37 °C for […]. Each sample was incubated three times in parallel, and an equal volume of pre-chilled acetonitrile was added at preset reaction time points, such as 0, 5, 10, 15, 30 and 60 min. The reaction was terminated by the addition of acetonitrile. The remaining content of the prototype drug in the warm incubation solution was determined by HPLC, HPLC-MC and HPLC-MC/MC.
# MKN45 xenograft tumor = MKN45 xenograft tumor model; type: in vivo, BALB/c nude mice; details: 8 mg/kg/d, ig
# Method: as §2
compound,measurement,setting,value
"CN1CCC(COc2cnc(-c3cccc(Cn4nc(-c5cccc(C#N)c5)ccc4=O)c3)nc2)CC1 [Tepotinib, reference compound]",Inhibition of kinases other than c-Met,284 kinases,not able to inhibit any other kinase
same,IC50,HS746T,3.6 µM
same,IC50,ASPC1,3.78 µM
same,IC50,MKN45,0.00165 µM
same,Tumor growth inhibition (TGI),MHCC97H xenograft tumor,63.9%
same,half-life,"[1]; Sprague-Dawley, rat, SD rats liver microsome",0.301 h
same,half-life,"[1]; cynomolgus monkey, Macaca fascicularis liver microsome",22.5 h
same,half-life,"[1]; dog, Beagle liver microsome",1.04 h
same,half-life,[1]; Human liver microsome,30.5 h
same,half-life,"[1]; mouse, CD - 1 mice liver microsome",0.252 h
same,TGI,MKN45 xenograft tumor,67.61%
